Assay results published in ChEMBL document CHEMBL1201862, “PubChem BioAssay data set” (2004).
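Tested at 5 concentrations; 48 h exposure; 96-well plates; endpoints linearly interpolated, else capped at highest concentration. The concentration for 50% growth inhibition is given as GI50.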 Active and inactive are the calls of the source. Cut-off read from the data, not from the text of the source: active = GI50 up to about 1.1 µM and inactive = higher.

How the values were obtained:
Experiment in all cases: NCI tumour cell line growth inhibition, 48 h
[1] = system: 786-0
[2] = system: ACHN
[3] = system: BT-549
[4] = system: EKVX
[5] = system: IGROV-1
[6] = system: LOX IMVI
[7] = system: MCF7
[8] = system: MDA-MB-231
[9] = system: Malme-3M
[10] = system: NCI-H522
[11] = system: NCI/ADR-RES
[12] = system: OVCAR-4
[13] = system: OVCAR-5
[14] = system: PC-3
[15] = system: SK-MEL-28
[16] = system: SNB-19
[17] = system: SR
[18] = system: U-251
[19] = system: UACC-257
[20] = system: UO-31

SMILES	GI50 [1]	GI50 [2]	GI50 [3]	GI50 [4]	GI50 [5]	GI50 [6]	GI50 [7]	GI50 [8]	GI50 [9]	GI50 [10]	GI50 [11]	GI50 [12]	GI50 [13]	GI50 [14]	GI50 [15]	GI50 [16]	GI50 [17]	GI50 [18]	GI50 [19]	GI50 [20]
COc1cccc2c(=O)c3c(n(C)c12)OC(C(C)C)C3 (stereo not drawn)	> 100 µM (inactive)	63 µM (inactive)	> 100 µM (inactive)	89.5 µM (inactive)	42.6 µM (inactive)	> 100 µM (inactive)	> 100 µM (inactive)	> 100 µM (inactive)	> 100 µM (inactive)	> 100 µM (inactive)	55.7 µM (inactive)	22.5 µM (inactive)	> 100 µM (inactive)	> 100 µM (inactive)	> 100 µM (inactive)	69.7 µM (inactive)	30.8 µM (inactive)	> 100 µM (inactive)	> 100 µM (inactive)	40.7 µM (inactive)
COC(=O)/C(=C\c1cn(C(C)=O)c2ccccc12)P(=O)(OC)OC	17.6 µM (inactive)	11.8 µM (inactive)	15.8 µM (inactive)	17 µM (inactive)	13.3 µM (inactive)	5.55 µM (inactive)	13.6 µM (inactive)	11.7 µM (inactive)	16.7 µM (inactive)	11.2 µM (inactive)	23.8 µM (inactive)	14.6 µM (inactive)	–	16.2 µM (inactive)	24.1 µM (inactive)	18.1 µM (inactive)	> 100 µM (inactive)	15.8 µM (inactive)	–	13.1 µM (inactive)
COCCOC(=O)C(C)=[N+]=[N-]	> 100 µM (inactive)	> 100 µM (inactive)	> 100 µM (inactive)	> 100 µM (inactive)	> 100 µM (inactive)	> 100 µM (inactive)	> 100 µM (inactive)	> 100 µM (inactive)	> 100 µM (inactive)	> 100 µM (inactive)	> 100 µM (inactive)	> 100 µM (inactive)	> 100 µM (inactive)	> 100 µM (inactive)	> 100 µM (inactive)	> 100 µM (inactive)	68.1 µM (inactive)	> 100 µM (inactive)	> 100 µM (inactive)	> 100 µM (inactive)
O=C(Nc1ccc2[nH]c(C(=O)N3CC(CCl)c4c3cc([N+](=O)[O-])c3ccccc43)cc2c1)c1cc2ccccc2o1 (stereo not drawn)	> 100 µM (inactive)	44.8 µM (inactive)	38.2 µM (inactive)	> 100 µM (inactive)	> 51.6 µM (inactive)	> 51.2 µM (inactive)	23 µM (inactive)	> 63 µM (inactive)	> 100 µM (inactive)	> 100 µM (inactive)	> 50.6 µM (inactive)	> 100 µM (inactive)	> 100 µM (inactive)	> 50.6 µM (inactive)	> 58.1 µM (inactive)	> 100 µM (inactive)	95.9 µM (inactive)	> 54.3 µM (inactive)	> 100 µM (inactive)	> 100 µM (inactive)
COc1cc(C2S/C(=C/c3ccccc3)C(=O)N2c2cc(Cl)ccc2Cl)cc(OC)c1OC (stereo not drawn)	18.8 µM (inactive)	35.8 µM (inactive)	39.5 µM (inactive)	24.2 µM (inactive)	18.9 µM (inactive)	15.8 µM (inactive)	27 µM (inactive)	40.3 µM (inactive)	32.8 µM (inactive)	21.9 µM (inactive)	28.2 µM (inactive)	–	–	31.6 µM (inactive)	64.9 µM (inactive)	71.9 µM (inactive)	44.9 µM (inactive)	35.7 µM (inactive)	> 100 µM (inactive)	55.7 µM (inactive)
Cc1cccc(-c2cc(O)c3ccc(C)nc3n2)c1	0.43 µM (active)	0.711 µM (active)	0.435 µM (active)	–	0.601 µM (active)	0.556 µM (active)	0.443 µM (active)	0.409 µM (active)	0.296 µM (active)	0.194 µM (active)	0.141 µM (active)	10 µM (inactive)	0.723 µM (active)	0.261 µM (active)	2.75 µM (inactive)	0.506 µM (active)	0.0491 µM (active)	0.389 µM (active)	–	3.77 µM (inactive)
COc1ccc(C2=Nc3c(nc(SC)[nH]c3=O)NC(c3ccccc3)C2)cc1 (stereo not drawn)	26.3 µM (inactive)	21.8 µM (inactive)	24.8 µM (inactive)	24.4 µM (inactive)	19.5 µM (inactive)	30.5 µM (inactive)	17.1 µM (inactive)	14.3 µM (inactive)	37.1 µM (inactive)	17.1 µM (inactive)	20 µM (inactive)	–	34.5 µM (inactive)	33.7 µM (inactive)	> 10 µM (inactive)	23.8 µM (inactive)	73.3 µM (inactive)	18.9 µM (inactive)	22.9 µM (inactive)	20.8 µM (inactive)
Nc1ccccc1-c1noc(=O)[nH]1	> 100 µM (inactive)	> 100 µM (inactive)	> 100 µM (inactive)	> 100 µM (inactive)	60.4 µM (inactive)	> 100 µM (inactive)	> 100 µM (inactive)	> 100 µM (inactive)	–	> 100 µM (inactive)	> 100 µM (inactive)	> 100 µM (inactive)	> 100 µM (inactive)	> 100 µM (inactive)	> 100 µM (inactive)	> 100 µM (inactive)	> 100 µM (inactive)	> 100 µM (inactive)	> 100 µM (inactive)	> 100 µM (inactive)
CSc1cc(Br)ccc1-n1c(C(=O)c2ccccc2)c(SC)n(-c2ccccc2)c1=O	> 100 µM (inactive)	> 100 µM (inactive)	> 100 µM (inactive)	> 100 µM (inactive)	> 100 µM (inactive)	> 100 µM (inactive)	63.1 µM (inactive)	39.8 µM (inactive)	–	54.6 µM (inactive)	53.8 µM (inactive)	> 100 µM (inactive)	> 100 µM (inactive)	5.53 µM (inactive)	> 100 µM (inactive)	> 100 µM (inactive)	74.5 µM (inactive)	> 100 µM (inactive)	> 100 µM (inactive)	67 µM (inactive)
N#CCC1COc2ccccc2O1 (stereo not drawn)	> 10 µM (inactive)	> 10 µM (inactive)	> 10 µM (inactive)	–	> 10 µM (inactive)	> 10 µM (inactive)	> 10 µM (inactive)	> 10 µM (inactive)	> 10 µM (inactive)	> 10 µM (inactive)	> 10 µM (inactive)	> 10 µM (inactive)	> 10 µM (inactive)	> 10 µM (inactive)	> 10 µM (inactive)	> 10 µM (inactive)	> 10 µM (inactive)	> 10 µM (inactive)	> 10 µM (inactive)	–
COc1cc2c3c(c1OC)C1(C=CC(=O)C=C1)CC3NCC2 (stereo not drawn)	44 µM (inactive)	> 100 µM (inactive)	> 100 µM (inactive)	> 100 µM (inactive)	> 100 µM (inactive)	> 100 µM (inactive)	> 100 µM (inactive)	> 100 µM (inactive)	> 100 µM (inactive)	71 µM (inactive)	> 100 µM (inactive)	> 100 µM (inactive)	> 100 µM (inactive)	> 100 µM (inactive)	> 100 µM (inactive)	> 100 µM (inactive)	> 100 µM (inactive)	> 100 µM (inactive)	> 100 µM (inactive)	–
